One series concerns DU145 cells. Put plainly: DU145 cell killing, ATPlite assay (ATP production). The note with it: for effect on sensitivity / resistance of the cells to mitoxantrone / timecourse of cell killing / EC50: DU145 cells; for effect on sensitivity / resistance of the cells to mitoxantrone: 48 and 72 hour timepoints; for EC50: Homo sapiens, DU-145, read-out: EC50 values for killing by Mitoxantrone, CNTO 328 at 20 μg/mL where combined. In kind it is cell-based, human. Here is the method:
DU145 cells were established from a metastatic central nervous system lesion of androgen-independent prostate carcinoma (Stone, K. R. et al. 1978 Int J Cancer 21: 274-81). […] Thus, study of direct interactions of chemotherapy agents and IL6 modulators can be studied on prostate tumor cells in vitro.
DU145 cells were plated at 500 cells/well in a 96 well plate and allowed to adhere for several hours. Treatments were added and plates were incubated at 37° C. for either 24, 48, or 72 hours. […] CNTO 328 was tested at 20 μg/mL and IL-6 was tested at both 10 and 50 ng/mL. Plates were analyzed for ATP production using the ATPlite assay from Perkin Elmer.
In general terms: In ATP-based viability assays light output follows the ATP content of the culture.

The next series relates to metastatic HRPC. The note with it: docetaxel every 3 weeks; cited from earlier work.
The subject of series [1] is DU-145 human prostate xenograft. Put plainly: DU-145 human prostate xenograft in nude mice, time to tumor volume of 1000 mm3. In kind it is in vivo. The note with it: for % TGD (tumor growth delay): [(T-C)/C]×100, versus PBS Group 1; for tumor growth delay vs. control (in words): monotherapy versus Group 1; for T-C (difference between median TTE of treated versus control group): same dosing, versus PBS Group 1; for Median TTE: time to tumor volume 1000 mm3, CNTO328 10 mg/Kg i.p. biweekly, Mitoxantrone 0.75 mg/Kg i.v. once per D for 5 D, n=8. The text has this:
Nude mice were implanted subcutaneously with 1 mm3 fragments of DU-145 human prostate xenograft tissue. […] Dosing was initiated on Day 1 as follows: […] The study endpoint was the time taken for tumors to reach a volume of 1000 mm3 at which time each animal was euthanized. Days in Progress=56. Calculation using the TTE=time to endpoint are: T−C=difference between median TTE (days) of treated versus control group, TGD=tumor growth delay. % TGD=[(T-C)/C]×100. The Logrank test was used to analyze the significance of the differences between the TTE values of treated and control groups. Two-tailed statistical analyses were conducted at significance level P-0.05. Statistical Significance: ns=not significant, **=P<0.01 compared to group indicated.
(In general: Xenograft models place foreign cells or tissue in a host animal.)

A further series relates to human prostate tumor. The note with it: human prostate tumor-bearing mice; cited from earlier work.

Where two headings read alike, the source gives them in different places.

In the case of “IL-6: 22-27 kDa secreted glycoprotein cytokine, added exogenously”, the “effect on sensitivity / resistance of the cells to mitoxantrone” value with DU145 cells is given as “did not increase resistance to the effect of mitoxantrone”.

As for `CC(=O)O[C@@]12CO[C@@H]1C[C@H](O)[C@@]1(C)C(=O)[C@H](O)C3=C(C)[C@@H](OC(=O)[C@H](O)[C@@H](NC(=O)OC(C)(C)C)c4ccccc4)C[C@@](O)([C@@H](OC(=O)c4ccccc4)[C@H]21)C3(C)C` [docetaxel], in the series with metastatic HRPC, the “improvement of survival over the reference M/P regimen” value was 2-2.5 months.

What is called EC50 is the concentration that produces a half-maximal response. As to `O=C1c2c(O)ccc(O)c2C(=O)c2c(NCCNCCO)ccc(NCCNCCO)c21` [Mitoxantrone, 1,4-Dihydroxy-5,8-bis[[2-[(2-hydroxyethyl)amino]ethyl]amino]-9,10-anthracenedione], in series [1], the “% TGD (tumor growth delay)” value is listed as 29%, the “tumor growth delay vs. control (in words)” value is on record as “no significant tumor growth delay”, the “T-C (difference between median TTE of treated versus control group)” value is on record as 6.2 days and the “Median TTE” value amounted to 27.7 days. Besides, the “mean body weight nadir” value in series [1] (day 10) is given as −5%. Moreover, the “timecourse of cell killing” value in the series with DU145 cells (48 and 72 hours (FIG. 1)) is listed as “greatest reduction in cell survival”. Moreover, the “timecourse of cell killing” value in the series with DU145 cells (24 hours (FIG. 1)) is “minimal cell death”. In addition, the EC50 in the series on DU145 cells (48 Hours) stood at 23 nM. Further, the EC50 in the series on DU145 cells (72 Hours) came to 10.8 nM.

B1: CNTO 328: an anti-IL-6 monoclonal antibody, derived from the CLB-8 anti-IL-6 antibody (antibody, chains of the INN, looked up, V domains shown)
VH: EVQLVESGGKLLKPGGSLKLSCAASGFTFSSFAMSWFRQSPEKRLEWVAEISSGGSYTYYPDTVTGRFTISRDNAKNTLYLEMSSLRSEDTAMYYCARGLWGYYALDYWGQGTSVTVSS
VL: QIVLIQSPAIMSASPGEKVTMTCSASSSVSYMYWYQQKPGSSPRLLIYDTSNLASGVPVRFSGSGSGTSYSLTISRMEAEDAATYYCQQWSGYPYTFGGGTKLEIK
For B1, in series [1], the “% TGD (tumor growth delay)” value is listed as −21%, the “tumor growth delay vs. control (in words)” value was “no significant tumor growth delay”, the “T-C (difference between median TTE of treated versus control group)” value is -4.6 days and the “Median TTE” value stood at 16.9 days. Further, the “effect on sensitivity / resistance of the cells to mitoxantrone” value in the series on DU145 cells is “does not significantly alter the sensitivity of the cells to mitoxantrone”. For the same molecule, the “proliferation of the DU145 cells” value in the series on DU145 cells (agent alone (not shown)) is reported as “ineffective at reducing proliferation”. For the same molecule, the “effect of monotherapy on tumor and survival” value with human prostate tumor was “block conversion to androgen independent growth, induce tumor apoptosis, and prolong survival”.

The values above are taken from patent US20080081041A1 (priority 2006, published 2008).
